ChEMBL document CHEMBL1201862, “PubChem BioAssay data set” (2004)
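Step 1: Grow cells in 96-well plates. Step 2: Expose to compound for 48 hours at 5 concentrations. Step 3: Interpolate endpoints linearly; if unreached, use highest concentration. The concentration for 50% growth inhibition is given as GI50.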 Active and inactive are the calls of the source. No stated cut-off is given here; in the data, active = GI50 up to about 1.1 µM and inactive = higher. Starred links: 1 amine or outer side, 2 acyl side, 3 side chain; linkers in the order of their positions; H or OH if unused. Positions of bridges follow the written chain, without caps; N, C: chain ends. Non-standard residues stand in square brackets, D forms with d. Residues, ends and D or L forms follow the SMILES beside them. *: point of attachment. X40 = CC[C@H](C)[C@@H](N[*:1])[C@@H](O)CC(=O)[*:2]; NMeY = CN[C@@H](Cc1ccc(O)cc1)C(=O)O; dNMeL = CN[C@H](CC(C)C)C(=O)O; Hiv = CC(C)[C@H](O)C(=O)O; Pyruvoyl = CC(=O)C(=O)*

What was measured:
Experiment in all cases: NCI tumour cell line growth inhibition, 48 h
BT-549 = test system: BT-549
HCT-15 = test system: HCT-15
A498 = test system: A498
SNB-19 = test system: SNB-19
MDA-MB-231 = test system: MDA-MB-231
SF-539 = test system: SF-539
HCT-116 = test system: HCT-116
SNB-75 = test system: SNB-75
A549 = test system: A549
Hs-578T = test system: Hs-578T
NCI/ADR-RES = test system: NCI/ADR-RES
SR = test system: SR
RXF 393 = test system: RXF 393
SW-620 = test system: SW-620
786-0 = test system: 786-0
TK-10 = test system: TK-10
MCF7 = test system: MCF7
OVCAR-8 = test system: OVCAR-8
K562 = test system: K562
KM12 = test system: KM12

SMILES: CC[C@H](C)[C@H]1NC(=O)[C@@H](NC(=O)[C@@H](CC(C)C)N(C)C(=O)[C@@H]2CCCN2C(=O)C(C)=O)[C@@H](C)OC(=O)[C@H](Cc2ccc(OC)cc2)N(C)C(=O)[C@@H]2CCCN2C(=O)[C@H](CC(C)C)NC(=O)[C@H](C(C)C)OC(=O)C[C@@H]1O (Pyruvoyl-P[dNMeL]T[X40][Hiv]LP[NMeY](Me); ester 3-C)
- GI50 (BT-549): 0.00617 µM (active)
- GI50 (HCT-15): 0.0252 µM
- GI50 (A498): 0.00538 µM (active)
- GI50 (SNB-19): 0.00224 µM (active)
- GI50 (MDA-MB-231): 0.0138 µM (active)
- GI50 (SF-539): 0.00361 µM (active)
- GI50 (HCT-116): 0.00222 µM (active)
- GI50 (SNB-75): 0.00482 µM (active)
- GI50 (A549): 0.00454 µM (active)
- GI50 (Hs-578T): 0.00476 µM (active)
- GI50 (NCI/ADR-RES): 0.226 µM (active)
- GI50 (SR): 0.001 µM (active)
- GI50 (RXF 393): 0.00383 µM (active)
- GI50 (SW-620): 0.00505 µM (active)
- GI50 (786-0): 0.00361 µM (active)
- GI50 (TK-10): 0.00838 µM (active)
- GI50 (MCF7): 0.00232 µM (active)
- GI50 (OVCAR-8): 0.006 µM (active)
- GI50 (K562): 0.00353 µM (active)
- GI50 (KM12): 0.00148 µM (active)

SMILES: O=C1C=C/C(=N/c2cccc3c(/N=C4/C=CC(=O)O4)cccc23)O1
- GI50 (BT-549): 86.3 µM (inactive)
- GI50 (HCT-15): 37.3 µM
- GI50 (A498): > 100 µM (inactive)
- GI50 (SNB-19): > 100 µM (inactive)
- GI50 (MDA-MB-231): 69.5 µM (inactive)
- GI50 (SF-539): 19.1 µM (inactive)
- GI50 (HCT-116): 24.8 µM (inactive)
- GI50 (SNB-75): > 100 µM (inactive)
- GI50 (A549): > 100 µM (inactive)
- GI50 (Hs-578T): > 100 µM (inactive)
- GI50 (NCI/ADR-RES): 95.7 µM (inactive)
- GI50 (SR): 19.8 µM (inactive)
- GI50 (RXF 393): 20.7 µM (inactive)
- GI50 (SW-620): 16.4 µM (inactive)
- GI50 (786-0): 19.4 µM (inactive)
- GI50 (TK-10): 17.7 µM (inactive)
- GI50 (MCF7): 33.3 µM (inactive)
- GI50 (OVCAR-8): 20 µM (inactive)
- GI50 (K562): 21.2 µM (inactive)
- GI50 (KM12): > 100 µM (inactive)

SMILES: Cc1nn2c(=O)c([N+](=O)[O-])c(/C=C/c3ccc(F)cc3)nc2s1
- GI50 (BT-549): 5.12 µM (inactive)
- GI50 (HCT-15): 7.5 µM
- GI50 (A498): 16.3 µM (inactive)
- GI50 (SNB-19): 10.8 µM (inactive)
- GI50 (MDA-MB-231): 13.9 µM (inactive)
- GI50 (SF-539): 8.55 µM (inactive)
- GI50 (HCT-116): 6.41 µM (inactive)
- GI50 (SNB-75): 9.27 µM (inactive)
- GI50 (A549): 9.06 µM (inactive)
- GI50 (Hs-578T): 11.2 µM (inactive)
- GI50 (NCI/ADR-RES): 9.77 µM (inactive)
- GI50 (SR): 3.8 µM (inactive)
- GI50 (RXF 393): 4.42 µM (inactive)
- GI50 (SW-620): 11.5 µM (inactive)
- GI50 (786-0): 10.9 µM (inactive)
- GI50 (TK-10): 14.1 µM (inactive)
- GI50 (MCF7): 3.4 µM (inactive)
- GI50 (OVCAR-8): 6.07 µM (inactive)
- GI50 (K562): 5.69 µM (inactive)
- GI50 (KM12): 7.24 µM (inactive)
